According to publication PMC9782603 (Viruses, 2022):
In brackets after ≈: the same amount, converted by molar mass. Like-named read-outs stand apart in the source and are kept apart here.

Tests used:
[1] = system: HCV GT 1b subgenomic reporter replicon (strain Con1); test: HCV GT 1b subgenomic replicon luciferase antiviral assay in Huh5-2 cells; type: cell-based; details: Huh5-2, GT 1b (Con1), F-Luc, 3 days, read-out: EC50 HCV Replicon 1b
[2] = system: HCV GT 3a (strain S52) replicon; test: HCV GT 3a subgenomic replicon luciferase antiviral assay in Huh7.5-3a cells; type: cell-based; details: Hepatitis C virus, GT3A, 72 h; Huh7.5-3a, GT 3a (S52), F-Luc, 3 days; read-out: EC50 HCV Replicon 3a
[3] = system: HCV GT 4a (strain ED43) replicon; test: HCV GT 4a subgenomic replicon luciferase antiviral assay in Huh7.5-4a cells; type: cell-based; details: Hepatitis C virus, GT4A, 72 h; Huh7.5-4a, GT 4a (ED43), F-Luc, 3 days; read-out: EC50 HCV Replicon 4a
[4] = alamarBlue reduction cytotoxicity assay in replicon cells; type: cell-based; details: human, HCV Replicon 1b cells
[5] = system: HCV GT-1b RNA (Con1 replicon); test: Viral RNA quantification by RT-qPCR in Huh5-2 replicon cells; type: cell-based; details: (+) strand HCV RNA by RT-qPCR, Huh5-2 cells, normalized to YWHAZ
HCV GT 1b (Con1) = test: Drug combination of 11a with daclatasvir in Huh5-2 replicon cells; type: cell-based
[6] = Water solubility by HPLC-UV after 24 h agitation; type: physicochemical; details: thermodynamic from solid, deionized water, ambient temperature
HCV GT 2a = test: Activity against HCV GT 2a (data not shown); type: cell-based
[7] = system: HCV GT-1b replicon containing Huh-7 cells; parameters: method as in earlier work; details: cited from earlier work
NS5B = details: reported NS5B TP-2 inhibitors, Figure 1; cited from earlier work
[8] = Hepatitis C virus, GT1B, Huh-5-2, 72 h

Structure (SMILES): Cc1ccc(OCC(=O)Nc2ccc3c(c2)c(=O)nc(C)n3-c2ccccc2)cc1 [11a, N-(2-Methyl-4-oxo-1-phenyl-1,4-dihydroquinazolin-6-yl)-2-(p-tolyloxy)acetamide]
- EC50 [1, 8]: 984 nM
- EC50 [1]: 980 ± 60 nM
- EC50 [2]: > 10000 nM
- EC50 [3]: > 10000 nM
- CC50 at 3 days [4]: 157500 ± 30 nM
- EC50 [5]: 1130 nM
- Combinatory effect with daclatasvir (HCV GT 1b (Con1); 11a in combination with DCV, Huh5-2, in words): additive effect
- CDI (coefficient of drug interaction) (HCV GT 1b (Con1); 11a with daclatasvir (DCV), Huh5-2): ≈ 1
- CDI (HCV GT 1b (Con1); DCV 30 pM + 11a 0.1 μM, Huh5-2): 0.949
- CDI (HCV GT 1b (Con1); DCV 30 pM + 11a 1 μM, Huh5-2): 0.995
- solubility at 24 h [6]: 2.7 µg/mL (≈ 6.76 µM)
- melting point: 268 °C

Structure (SMILES): Cc1nc(=O)c2cc(NC(=O)COc3ccc(Cl)cc3)ccc2n1-c1ccccc1 [11b, 2-(4-Chlorophenoxy)-N-(2-methyl-4-oxo-1-phenyl-1,4-dihydroquinazolin-6-yl)acetamide]
- EC50 [1, 8]: 1380 ± 40 nM
- EC50 [2]: 11600 ± 1260 nM
- EC50 [3]: > 10000 nM
- CC50 at 3 days [4]: 99010 ± 90 nM
- solubility at 24 h [6]: 3.5 µg/mL (≈ 8.34 µM)
- activity against GT 2a (HCV GT 2a): no activity
- melting point: 254 °C

Structure (SMILES): CC1CCC(C(=O)N(c2cc(C#CC(C)(C)C)sc2C(=O)O)C(C)C)CC1 (stereo not drawn) [II]
- EC50 [7]: 26 nM
- IC50 (NS5B): 86 nM
